Values after ≈ are worked out from the molar mass of the structure shown.
What was measured:
microbial contamination = experiment: MIC in kaolin slurry with significant microbial spoilage, reduction to less than ten colony forming units/ml (Example 4); format: cell-based
Description: A sample of kaolin slurry with significant microbial spoilage was dosed with a range of concentrations of 1,2-benzisothiazolin-3-one, glutaraldehyde, and 1,2-benzisothiazolin-3-one plus glutaraldehyde (1:14 weight ratio). A sample was included, antimicrobial free, for control purposes with determinations of the colony forming units/ml. MIC values (in parts per million of Active Ingredient) to reduce microbial contamination to less than ten colony forming units/ml were determined by the absence of detectable growth by dilution plate counts.
(§1) The results for Examples 3 and 4 were quantified with respect to the synergy shown through the application of an equation described in Berenbaum, M.C. "A method for Testing for Synergy with Any Number of Agents" The Journal of Infectious Diseases, Vol 137, No. 2 pp 122-130 (February, 1978). The relevant equation is as follows: [formula]
(§2) If Z is less than 1, synergy is present. If Z equals 1, additive interaction is present. If Z is greater than 1, an antagonistic interaction is present.

[1] = test system: Acinetobacter calcoaceticus, Pseudomonas aeruginosa, Enterobacter cloacae and Escherichia coli; experiment: MIC in calcium carbonate slurry, inoculated weekly, reduction to less than ten colony forming units/ml (Example 3); format: cell-based; conditions: for MIC: Calcium Carbonate Slurry
Description: Several forty gram samples of a calcium carbonate slurry (Gamma-Fil 90, available from the Georgia Marble Company) which were free of microbial growth, were prepared. These samples were divided into four groups. The first group was dosed with varying amounts of glutaraldehyde (in the form of a 50 percent aqueous solution); the second group was dosed with varying amounts of 1,2-benzisothiazolin-3-one the third group was dosed with varying amounts of glutaraldehyde (in the form of a 50 percent aqueous solution) and of 1,2-benzisothiazolin-3-one (in the form of Proxel® Press Paste) in a 14:1 ratio by weight of glutaraldehyde:BIT a fourth group was left untreated as a control. These samples were each inoculated three times on a weekly basis with an inoculum which contained the following microorganisms: Acinetobacter calcoaceticus, Pseudomonas aeruginosa, Enterobacter cloacae and Escherichia coli. The minimum inhibitory concentration (MIC) values were determined for preservative levels effective in reducing the contaminating microorganisms to less than ten colony forming units/ml for the first three groups. The number of colony forming units/ml in the control group was also determined.
as §1, §2

physchem = format: physicochemical
Description: A pH 3.2 solution was attained by adding 12.5 ml of 0.2 M acetic acid to 100 ml of deionized water. The pH 4.8 solution was prepared by adding 22.5 ml of 0.2 M acetic acid plus 27.5 ml of 0.2 M sodium acetate brought to a total volume of 100 ml with deionized water. Finally the pH of 6.8 solution was created by adding 4.1 ml of 0.2 M sodium acetate plus 1 drop of 0.2 M acetic acid to 100 ml of deionized water. […] Employing the same buffering agents, solutions with 50% aqueous glutaraldehyde were prepared having pH's of 3.2, 4.8 and 6.8 respectively. A twenty ml solution having a pH of 3.2 was attained with 1.45 ml of acetic acid; the twenty ml solution having a pH of 4.8 contained acetic acid and sodium acetate in a 3:1 weight ratio and the twenty ml solution having a pH of 6.8 contained 1.25 g of sodium acetate. The solubility of BIT in each solution was determined as described above.

[2] = format: physicochemical
Description: In order to compare the composition of the present invention with that disclosed in U.S. Pat. No. 4,539,071 (Clifford et al) a stable aqueous composition of isothiazolone, the following experiment was performed. To deionized water were added 0.2 percent cupric nitrate, 9 percent magnesium chloride and 15 percent magnesium nitrate, all in percent by weight.

Row | MIC (microbial contamination; 24 h, 1 day) | MIC (microbial contamination; 48 h, 2 days) | MIC (microbial contamination; 72 h, 3 days) | MIC (microbial contamination; 168 h, 7 days) | MIC ([1]; Week 1) | MIC ([1]; Week 2) | MIC ([1]; Week 3) | solubility of 1,2-benzisothiazolin-3-one is increased by the addition of glutaraldehyde (physchem) | solubility (physchem; buffered 50% aqueous glutaraldehyde, pH 3.2) | solubility (physchem; buffered 50% aqueous glutaraldehyde, pH 4.8) | solubility (physchem; buffered 50% aqueous glutaraldehyde, pH 6.8) | solubility (physchem; buffered deionized water, pH 3.2) | solubility (physchem; buffered deionized water, pH 4.8) | solubility (physchem; buffered deionized water, pH 6.8) | solubility of 1,2-benzisothiazolin-3-one [2] | Structure (SMILES) | antimicrobial activity/potency on repeated challenge (in words) ([1]; calcium carbonate slurry, second and third challenges with microbial insults)
1 | 250 µg/mL | 150 µg/mL | 200 µg/mL | 250 µg/mL | 250 µg/mL | 500 µg/mL | 500 µg/mL |  |  |  |  |  |  |  |  | O=CCCCC=O [Glutaraldehyde, glutaraldehyde] | undergoes a reduction in antimicrobial activity
2 | 178 µg/mL | > 178 µg/mL | > 178 µg/mL | 133 µg/mL | 285 µg/mL | > 570 µg/mL | 380 µg/mL | increased considerably | 31.8 mg/mL (≈ 210 mM) | 33.8 mg/mL (≈ 224 mM) | 30.4 mg/mL (≈ 201 mM) | 3.2 mg/mL (≈ 21.2 mM) | 1.1 mg/mL (≈ 7.28 mM) | 0.4 mg/mL (≈ 2.65 mM) | essentially nil | O=c1[nH]sc2ccccc12 [BIT, 1,2-benzisothiazolin-3-one] | 

Reference: patent US5004749A, “Concentrated aqueous solution of glutaraldehyde and 1,2-benzisothiazolin-3-one” (priority 1989, dated 1991)
